EC50 and Activity data for 17 compounds are collected here from ChEMBL document CHEMBL1143861, “Chemical modulators of heat shock protein 70 (Hsp70) by sequential, microwave-accelerated reactions on solid phase” (Bioorg Med Chem Lett, 2008).

The source made the active and inactive calls. The rule behind the calls is not given here. A value given as a limit tells only on which side of the number the result lay.

Assay [1] in a line: Inhibition of Escherichia coli DnaK ATPase activity.
The nature of assay [2]: Inhibition of bovine Hsp70 ATPase activity. Also noted: species or system Bos taurus.
The nature of assay [3]: Activity against bovine Hsp70 ATPase activity. Also noted: species or system Bos taurus.
Assay [4] is described as follows: Activity against Escherichia coli DnaK ATPase activity.
The nature of assay [5]: Activation of bovine Hsp70 ATPase activity. Also on record: species or system Bos taurus.
For another assay, the system named is Escherichia coli. The assay can be described thus: (§1) Activation of Escherichia coli DnaK ATPase activity.
Assay [6] in a line: as §1.

A word on the EC50: it is the midpoint of the concentration-response curve. For the compound `CCOC(=O)C1=C(C)N(CCCC(=O)N[C@@H](CCCCN)CC(=O)N[C@@H](CCc2ccccc2)CC(=O)NCCC(=O)O)C(=O)NC1c1ccc(Br)cc1` (some centres undefined), the values for the EC50 in assay [1] and in assay [2] were 107 µM and 105 µM, respectively.

For the compound `CCOC(=O)C1=C(C)N(CCCC(=O)NCCC(=O)NCCC(=O)NCCC(=O)O)C(=O)NC1c1ccc(Br)cc1` (centres undefined), the EC50 in assay [3] and in assay [4] was greater than 400 µM in each case.

Turning to `CCOC(=O)C1=C(C)N(CCCC(=O)N[C@H](CC(=O)NCCC(=O)O)CC(C)C)C(=O)NC1c1ccc(Br)cc1` (some centres undefined), the EC50 in assay [3] and in assay [4] was greater than 400 µM each time.

Take `CCOC(=O)C1=C(C)N(CCCC(=O)N[C@H](CC(=O)N[C@H](CC(=O)NCCC(=O)O)CC(C)C)CC(C)C)C(=O)NC1c1ccc(Br)cc1` (some centres undefined): the EC50 in assay [3] and in assay [4] was greater than 400 µM in each case.

In turn, `CCOC(=O)C1=C(C)N(CCCC(=O)N[C@@H](CCc2ccccc2)CC(=O)NCCC(=O)O)C(=O)NC1c1ccc(Br)cc1` (some centres undefined) came in with a concentration giving a half-maximal response (EC50) in assay [5] of 190 µM. Moreover, in the assay with Escherichia coli, the outcome was inactive.

For the compound `CCOC(=O)C1=C(C)N(CCCC(=O)N[C@H](CC(=O)NCCC(=O)O)c2ccccc2)C(=O)NC1c1ccc(Br)cc1` (some centres undefined), the EC50 in assay [3] and in assay [4] was greater than 400 µM each time.

With `CCOC(=O)C1=C(C)N(CCCC(=O)O)C(=O)NC1c1ccc(Br)cc1` (centres undefined), the EC50 in assay [3] and in assay [4] was greater than 400 µM throughout.

For `CCOC(=O)C1=C(C)N(CCCC(=O)N[C@@H](CCCCN)CC(=O)N[C@H](CC(=O)NCCC(=O)O)[C@@H](C)CC)C(=O)NC1c1ccc(Br)cc1` (some centres undefined), the 50% effective concentration (EC50) in assay [5] came out at 352 µM. Also, the result in the assay with Escherichia coli was inactive.

Turning to `CCOC(=O)C1=C(C)N(CCCC(=O)OC)C(=O)NC1c1ccc(Br)cc1` (centres undefined), the EC50 in assay [5] was 213 µM. Further, the result with Escherichia coli was inactive.

For the compound `CCOC(=O)C1=C(C)N(CCCC(=O)N[C@H](CC(=O)NCCC(=O)O)C(C)C)C(=O)NC1c1ccc(Br)cc1` (some centres undefined), the EC50 in assay [3] and in assay [4] was greater than 400 µM throughout.

Take `CCOC(=O)C1=C(C)N(CCCC(=O)N[C@H](CC(=O)N[C@H](CC(=O)NCCC(=O)O)c2ccccc2)CC(C)C)C(=O)NC1c1ccc(Br)cc1` (some centres undefined): the EC50 in assay [3] and in assay [4] was greater than 400 µM throughout.

The compound `CCOC(=O)C1=C(C)N(CCCC(=O)N[C@H](CC(=O)N[C@H](CC(=O)NCCC(=O)O)Cc2cccc3ccccc23)C(C)C)C(=O)NC1c1ccc(Br)cc1` (some centres undefined) came in with a concentration giving a half-maximal response (EC50) in assay [5] of 255 µM. In the assay with Escherichia coli, the result was inactive.

In the case of `CCOC(=O)C1=C(C)N(CCCC(=O)N[C@H](CC(=O)NCCC(=O)O)[C@@H](C)CC)C(=O)NC1c1ccc(Br)cc1` (some centres undefined), the 50% effective concentration (EC50) in assay [3] and in assay [4] was greater than 400 µM throughout.

`CCOC(=O)C1=C(C)N(CCCC(=O)N[C@@H](CCc2ccccc2)CC(=O)N[C@@H](CCCCN)CC(=O)NCCC(=O)O)C(=O)NC1c1ccc(Br)cc1` (some centres undefined): the EC50 in assay [1] worked out at 325 µM; in assay [2], 265 µM.

Regarding `CCOC(=O)C1=C(C)N(CCCC(=O)N[C@H](CC(=O)NCCC(=O)O)Cc2cccc3ccccc23)C(=O)NC1c1ccc(Br)cc1` (some centres undefined), the concentration giving a half-maximal response (EC50) was determined as 179 µM in assay [5] and 190 µM in assay [6].

Regarding `CCOC(=O)C1=C(C)N(CCCC(=O)N[C@@H](CCCCN)CC(=O)NCCC(=O)O)C(=O)NC1c1ccc(Br)cc1` (some centres undefined), the EC50 in assay [3] and in assay [4] was greater than 400 µM each time.

Regarding `CCOC(=O)C1=C(C)N(CCCC(=O)NCCC(=O)NCCC(=O)O)C(=O)NC1c1ccc(Br)cc1` (centres undefined), the EC50 in assay [3] and in assay [4] was greater than 400 µM each time.
